Reference: ChEMBL document CHEMBL1821677, “Identification of novel allosteric modulators for the G-protein coupled US28 receptor of human cytomegalovirus” (Bioorg Med Chem Lett, 2011)
Activity calls are given as the source filed them. The calls are words filed in the database; no cut-off is given here.

Assays:
[1] = Inverse agonist activity at HCMV TB40/E US28 expressed in human HEK cells assessed as Elk-1 activation preincubated for 1 hrs measured after 20 to 24 hrs by luciferase reporter gene assay; format: functional, cell-based; details: Human betaherpesvirus 5, TB40/E, HEK293
[2] = Cytotoxicity against mock transfected human HEK cells at 10 uM after 20 to 24 hrs by Cell titer cell proliferation assay; format: cell-based; details: hek293, 10 µM
[3] = system: G-protein coupled receptor homolog US28 (Human cytomegalovirus); test: Efficacy at HCMV TB40/E US28 expressed in human HEK cells assessed as Elk-1 activation preincubated for 1 hrs measured after 20 to 24 hrs by PathDetect trans Elk-1 reporter gene assay relative to control; details: Human betaherpesvirus 5, HEK293
[4] = molecular target: D(2) dopamine receptor (Homo sapiens) (UniProt P14416); test: Binding affinity to human dopamine D2L receptor expressed in HEK cells assessed as Elk-1 activation preincubated for 1 hrs measured after 20 to 24 hrs by PathDetect trans Elk-1 reporter gene assay; format: cell-based; details: HEK293
Chain of D(2) dopamine receptor (Homo sapiens) (P14416 whole entry): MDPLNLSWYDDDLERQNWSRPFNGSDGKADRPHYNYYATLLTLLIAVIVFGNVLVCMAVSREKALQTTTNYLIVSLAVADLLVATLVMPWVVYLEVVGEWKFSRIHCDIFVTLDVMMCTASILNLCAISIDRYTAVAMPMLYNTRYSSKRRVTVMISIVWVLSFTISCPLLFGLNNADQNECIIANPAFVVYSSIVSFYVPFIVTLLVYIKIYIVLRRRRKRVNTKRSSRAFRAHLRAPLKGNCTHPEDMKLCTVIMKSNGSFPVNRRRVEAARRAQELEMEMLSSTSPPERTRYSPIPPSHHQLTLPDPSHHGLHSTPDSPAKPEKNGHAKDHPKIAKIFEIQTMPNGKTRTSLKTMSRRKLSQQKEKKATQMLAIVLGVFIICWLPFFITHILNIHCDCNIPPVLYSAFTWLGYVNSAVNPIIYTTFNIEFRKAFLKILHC

[5] = molecular target: D(2) dopamine receptor (Homo sapiens) (UniProt P14416); test: Binding affinity to dopamine D2L receptor

Structure (SMILES)	EC50 ([1]; read-out: EC50) [µM]	EC50 ([1]; read-out: pEC50 (converted)) [µM]	Activity [2]	Efficacy [3] [%]	Activity [4]	Activity [5] [µM]
CC1(COC(=O)c2ccccc2)Cc2ccccc2CN1C(=O)c1ccccc1 (configuration not stated)	8.5	8.51	Toxic	-62		
CCCC[C@H]1Cc2c(Cl)cccc2[C@@H](c2ccccc2)N1 (relative stereo)	0.13	0.129		21	Active	
CCCC[C@H]1Cc2ccc(Cl)cc2[C@@H](c2ccccc2)N1 (relative stereo)	7.8	7.76		12		
CCCCCCCCCC(=O)N(CCN(C)C)C1CCCCC12Cc1ccccc1C(=O)N2 (configuration not stated)	4.8	4.79		-22		
CCCC[C@H]1Cc2ccc(F)cc2[C@@H](c2ccccc2)N1 (relative stereo)	1.8	1.78		15		
CC1(CCO)Cc2ccccc2C(=O)N1c1ccccc1 (configuration not stated)	1	1.02	Non-toxic	-14		
N#CC(CCCN1CCC(O)(c2ccc(Cl)cc2)CC1)(c1ccccc1)c1ccccc1 [BERLEX COMPOUND]	4.5	4.57		-22		2
CC1(CO)Cc2ccccc2C(=O)N1c1ccccc1 (configuration not stated)	4.4	4.37		41		
CCCCCCCCCC(=O)N(CCN(C)C)CC1(C)Cc2ccccc2C(=O)N1 (configuration not stated)	1.5	1.51	Non-toxic	-20		
CC1(COC(=O)c2ccco2)Cc2ccccc2CN1C(=O)c1ccco1 (configuration not stated)	7.4	7.41	Non-toxic	-18		
CCCC[C@@H]1Cc2c(Cl)cccc2[C@@H](c2ccccc2)N1 (relative stereo)	1.4	1.41		16		
CCCCCC[C@H]1Cc2c(Cl)cccc2[C@@H](c2ccccc2)N1 (relative stereo)	2.3	2.29		21		
CC1(CCOC(=O)Cc2ccccc2)Cc2ccccc2CN1C(=O)Cc1ccccc1 (configuration not stated)	7.5	7.59	Toxic	-51		
CSc1ccc2c(c1)C(N1CCN(C)CC1)Cc1ccccc1S2 (configuration not stated) [METITEPINE]	0.35	0.355		10		
CC1(CCOC(=O)c2ccccc2)Cc2ccccc2CN1C(=O)c1ccccc1 (configuration not stated)	13.5	13.5	Toxic	-70		
CCC[C@H]1Cc2c(Cl)cccc2[C@@H](c2ccccc2)N1 (relative stereo)	1.5	1.55		27		
CCCC[C@@H]1Cc2ccc(F)cc2[C@@H](c2ccccc2)N1 (relative stereo)	2	2		15		
CCCC[C@H]1Cc2ccccc2[C@@H](c2ccccc2)N1 (relative stereo)	0.28	0.275		22	Active	
CC1(COC(=O)Cc2ccccc2)Cc2ccccc2CN1C(=O)Cc1ccccc1 (configuration not stated)	3.4	3.47	Non-toxic	-37		
